Experimental findings from patent US20240327387A1, “TRIAZINE DERIVATIVES FOR THE TREATMENT OF TUMOURS AND NEURODEGENERATIVE DISORDERS” (UNIVERSITA' DEGLI STUDI DI MILANO, priority 2021, published 2024) are described below.

Experiment [1] has as its target T1, PD-L1 (Homo sapiens (Human), UniProt Q9NZQ7). Description: NMR binding assay (macromolecule-based 1D 1H NMR). To be noted: PD-L1 10 μM, protein:ligand 1:1 and 1:10.
Target sequence in this assay (Q9NZQ7 18-134): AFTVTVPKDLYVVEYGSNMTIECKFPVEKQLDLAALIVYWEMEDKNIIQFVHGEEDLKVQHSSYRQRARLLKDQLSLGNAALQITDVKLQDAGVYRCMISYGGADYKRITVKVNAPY
Experiment [2] concerns the target T1, PD-L1. Description: Differential scanning calorimetry (DSC) of PD-L1. The format is binding. To be noted: PD-L1 32 μM, ligand 32 μM. A general note: In DSC, transitions show as peaks or steps in heat flow.
Target sequence in this assay (Q9NZQ7 18-134): as above
In experiment [3] the target is hPD1/hPD-L1 interaction (Homo sapiens (Human), UniProt Q9NZQ7). Description: HTRF assay of PD-1/PD-L1 interaction. The format is binding.
hPD1/hPD-L1 interaction, sequence (Q9NZQ7 19-238): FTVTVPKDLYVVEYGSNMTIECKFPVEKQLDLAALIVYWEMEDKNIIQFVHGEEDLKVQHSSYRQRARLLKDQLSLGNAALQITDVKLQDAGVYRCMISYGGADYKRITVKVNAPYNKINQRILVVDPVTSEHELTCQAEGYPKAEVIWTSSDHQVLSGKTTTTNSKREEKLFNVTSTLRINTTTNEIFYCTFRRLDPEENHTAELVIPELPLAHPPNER
The target of experiment [4] is T1, PD-L1. To be noted: PD-L1 versus PD-1.
Target sequence in this assay (Q9NZQ7 19-290): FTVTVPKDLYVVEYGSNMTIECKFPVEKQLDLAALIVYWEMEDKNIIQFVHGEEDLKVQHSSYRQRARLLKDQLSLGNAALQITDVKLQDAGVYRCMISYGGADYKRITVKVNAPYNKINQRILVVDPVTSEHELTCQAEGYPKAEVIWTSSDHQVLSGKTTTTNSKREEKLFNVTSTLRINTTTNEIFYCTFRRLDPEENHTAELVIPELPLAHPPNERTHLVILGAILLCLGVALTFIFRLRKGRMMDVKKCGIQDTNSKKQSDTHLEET

Each structure is given as a SMILES string. Where only a bound is given, the exact number is not on record here.

`COc1nc(OCc2cccc(-c3ccccc3)c2C)ccc1CNCCNC(C)=O` [BMS202]: the “formation of the ligand-PD-L1 complex (1D 1H NMR signal changes)” value in experiment [1] is given as “decrease in the intensity of the free protein signals”. Further, the “change in the Tm of the protein (ΔTm)” value in experiment [2] came out at 6.5 °C. Besides, the “Tm of PD-L1 in the presence of ligand” value in experiment [2] (no ligand Tm 46.5 (±0.5)) is 53.0 (±0.5) ° C. What is called IC50 is the concentration needed to halve the response being measured. Consider `CC(=O)NCCNc1ncnc(OCc2cccc(-c3ccccc3)c2C)n1` [Compound 4], for which, in experiment [1], the “formation of the ligand-PD-L1 complex (1D 1H NMR signal changes)” value is reported as “formation of the compound 4-PD-L1 complex”. For the same molecule, the IC50 amounted to 0.115 µM in experiment [3] (HTRF) and 0.115 ± 0.024 µM in experiment [3] (HTRF, Table 1). Moreover, in experiment [4], the specific binding result is “capable of specifically binding PD-L1 and not PD-1”. In experiment [3] (Table 2), `COC(=O)[C@H](CO)Nc1ncnc(OCc2cccc(-c3ccccc3)c2C)n1` [Compound 76] showed an IC50 of 0.692 µM. `Cc1c(COc2ncnc(N[C@@H](CO)C(=O)O)n2)cccc1-c1ccccc1` [Compound 77]: in experiment [3] (Table 2), the half-inhibitory concentration (IC50) was greater than 10 µM. In experiment [3] (Table 2), `CC(=O)NCCNc1ncnc(NCc2cccc(-c3ccccc3)c2C)n1` [Compound 80] came in with a half-inhibitory concentration (IC50) greater than 10 µM. `Cc1c(CNc2ncnc(NCCNS(C)(=O)=O)n2)cccc1-c1ccccc1` [Compound 81] had an IC50 in experiment [3] (Table 2) greater than 10 µM. On to `COC(=O)[C@H](CO)Nc1ncnc(NCc2cccc(-c3ccccc3)c2C)n1` [Compound 82], for which, in experiment [3] (Table 2), the IC50 was greater than 10 µM.

In the case of `Cc1c(CNc2ncnc(N[C@@H](CO)C(=O)O)n2)cccc1-c1ccccc1` [Compound 83], the IC50 in experiment [3] (Table 2) is greater than 10 µM. In experiment [3] (Table 2), `CC(=O)NCCNc1ncnc(NCc2cccc(-c3ccc4c(c3)OCCO4)c2C)n1` [Compound 84] gave an IC50 greater than 10 µM. The molecule `Cc1c(CNc2ncnc(NCCNS(C)(=O)=O)n2)cccc1-c1ccc2c(c1)OCCO2` [Compound 85] gave an IC50 in experiment [3] (Table 2) greater than 10 µM.
